From patent EP4813992A1, “POLYARYL DERIVATIVE AND USE THEREOF” (Hangzhou HealZen Therapeutics Co., Ltd., priority 2023, dated 2025)

Target: HPK1 kinase (Homo sapiens, UniProt Q92918)
Assay: Lantha screen assay, inhibitory effect on HPK1 kinase
Type: biochemical
Conditions: initial compound concentration 1 µM
Procedure: The Lantha screen assay is used to evaluate the inhibitory effect of the compounds on HPK1 kinase. • a) Kinase buffer: 50 mM HEPES (pH 7.5), 10 mM MgCl2, 4 mM DTT, 0.01% Tween-20, 0.01% BSA. • b) Compound Preparation: The compound is diluted with DMSO, and the initial detection concentration of the compound is 1 µM and is diluted to the corresponding concentration. • c) Kinase response and termination: A kinase solution is prepared by adding kinase buffer, the kinase solution and the compound are added to the test plate to be incubated at room temperature for 10 minutes. Fluorescein-PKC and ATP are added to the kinase buffer to form a substrate solution, and 5 µl of the substrate solution is added to the test plate to start the reaction to be incubated at room temperature for 90 minutes; then, 10 µl of a mixture of antibody and EDTA is added to terminate the reaction to be incubated at room temperature for 60 minutes. • d) The date is read by Envision instrument to plot a curve with the Log concentration of the inhibitor as the X-axis and the inhibition rate as the Y-axis, and then the formula Y=Bottom + (Top-Bottom)/(1+(IC50/X)^HillSlope) is used to obtain IC50. Table 1 Inhibitory activity the compounds of the invention on HPK1 kinase

Chain of HPK1 kinase (Q92918 whole entry): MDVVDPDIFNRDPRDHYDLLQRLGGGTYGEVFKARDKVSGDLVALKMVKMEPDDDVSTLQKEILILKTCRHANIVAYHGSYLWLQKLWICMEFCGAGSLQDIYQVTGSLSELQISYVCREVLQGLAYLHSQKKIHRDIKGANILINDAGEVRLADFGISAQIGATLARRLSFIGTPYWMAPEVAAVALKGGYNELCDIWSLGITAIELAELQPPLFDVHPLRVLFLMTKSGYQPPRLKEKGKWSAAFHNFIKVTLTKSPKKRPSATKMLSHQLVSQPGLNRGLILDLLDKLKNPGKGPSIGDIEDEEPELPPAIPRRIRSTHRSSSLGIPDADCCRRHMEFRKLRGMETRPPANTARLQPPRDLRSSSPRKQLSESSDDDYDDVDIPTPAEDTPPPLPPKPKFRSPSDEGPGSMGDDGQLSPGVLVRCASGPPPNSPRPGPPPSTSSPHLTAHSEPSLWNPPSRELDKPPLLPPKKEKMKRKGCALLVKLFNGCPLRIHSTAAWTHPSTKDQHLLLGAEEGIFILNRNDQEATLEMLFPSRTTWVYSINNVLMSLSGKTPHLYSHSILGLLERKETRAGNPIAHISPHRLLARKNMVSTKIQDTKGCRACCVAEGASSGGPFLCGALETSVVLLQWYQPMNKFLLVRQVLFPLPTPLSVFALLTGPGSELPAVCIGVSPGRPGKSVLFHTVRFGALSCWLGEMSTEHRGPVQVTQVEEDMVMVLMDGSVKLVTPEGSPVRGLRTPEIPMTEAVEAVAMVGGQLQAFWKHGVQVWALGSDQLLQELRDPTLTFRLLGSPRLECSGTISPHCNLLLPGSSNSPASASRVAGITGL

| SMILES | IC50 [nM] |
| --- | --- |
| Cc1ccc(C(=O)N2CC(N3CC=C(c4c(C)cc(-c5cnc6[nH]cc(-c7ccc8c(c7)CCN(C)C8=O)c6n5)cc4C)CC3)C2)cc1N1CCC(=O)NC1=O [compound 072] | < 10 |
| Cc1cc(N2CCC3(CCC(N4CC=C(c5c(C)cc(-c6cnc7[nH]cc(-c8ccc(C(=O)N(C)C)cc8)c7n6)cc5C)CC4)C3)C2)ccc1N1CCC(=O)NC1=O (centres unmarked) [compound 017] | < 10 |
| Cc1cc(-c2cnc3[nH]cc(-c4ccc(C(=O)N(C)C)cc4)c3n2)cc(C)c1C1=CCN(CCCC(=O)c2ccc(C3CCC(=O)NC3=O)cc2)CC1 (centres unmarked) [compound 033] | < 10 |
| COc1cc(N2CC(CN3CC=C(c4c(C)cc(-c5cnc6[nH]cc(-c7ccc(C(=O)N(C)C)cc7)c6n5)cc4C)CC3)C2)ccc1C(=O)NC1CCC(=O)NC1=O (centres unmarked) [compound 059] | < 10 |
| Cc1cc(-c2cnc3[nH]cc(-c4ccc(C(=O)N(C)C)cc4)c3n2)cc(C)c1C1=CCN(CC2CN(c3cccc4c(C5CCC(=O)NC5=O)coc34)C2)CC1 (centres unmarked) [compound 147] | < 10 |
| Cc1cc(-c2cnc3[nH]cc(-c4ccc(C(=O)N(C)C)cc4)c3n2)cc(C)c1C1=CCN(C2CN(c3ccc(C(=O)NC4CCC(=O)NC4=O)cc3)C2)CC1 (centres unmarked) [compound 005] | < 10 |
| Cc1cc(-c2cnc3[nH]cc(-c4ccc(C(=O)N(C)C)cc4)c3n2)cc(C)c1C1=CCN(C2CC3(CCN(c4ccc(C5CCC(=O)NC5=O)c(F)c4)C3)C2)CC1 (centres unmarked) [compound 045] | < 10 |
| Cc1cc(-c2cnc3[nH]cc(-c4ccc(C(=O)N5CC6(COC6)C5)cc4)c3n2)cc(C)c1C1=CCN(CC2CN(c3ccc(C(=O)NC4CCC(=O)NC4=O)cc3)C2)CC1 (centres unmarked) [compound 075] | < 10 |
| Cc1cc(-c2cnc3[nH]cc(-c4ccc(C(=O)N(C)C)cc4)c3n2)cc(C)c1C1=CCN(C2CN(C(=O)c3ccc(NC4CCC(=O)NC4=O)cc3)C2)CC1 (centres unmarked) [compound 020] | < 10 |
| Cc1cc(-c2cnc3[nH]cc(-c4ccc(C(=O)N(C)C)cc4)c3n2)cc(C)c1C1=CCN(CC2CN(c3ncc(C(=O)NC4CCC(=O)NC4=O)o3)C2)CC1 (centres unmarked) [compound 068] | < 10 |

Now from value to molecule:

| IC50 [nM] | SMILES |
| --- | --- |
| < 10 | Cc1cc(N2CC3(CC(N4CC=C(c5c(C)cc(-c6cnc7[nH]cc(-c8ccc(C(=O)N(C)C)cc8)c7n6)cc5C)CC4)C3)C2)ccc1N1CCC(=O)NC1=O [compound 034] |
| < 10 | CCOc1cc(-c2cnc3[nH]cc(-c4ccc(C(=O)N(C)C)cc4)c3c2)ccc1C1=CCN(CC2CN(c3ccc(N4CCC(=O)NC4=O)c(C)c3)C2)CC1 [compound 137] |
| < 10 | Cc1cc(N2CC(CN3CC=C(c4c(C)cc(-c5cnc6[nH]cc(-c7ccc(C(=O)N(C)C)cc7)c6n5)cc4C)CC3)C2)ccc1NC1CCC(=O)NC1=O (centres unmarked) [compound 021] |
| < 10 | Cc1cc(-c2cnc3[nH]cc(-c4ccc(C(=O)N(C)C)cc4)c3n2)cc(C)c1C1=CCN(CC2CN(C(=O)c3ccc(Cl)c(N4CCC(=O)NC4=O)c3)C2)CC1 [compound 124] |
| < 10 | Cc1cc(N2CC(CN3CC=C(c4c(C)cc(-c5cnc6[nH]cc(-c7ccc(-c8ncco8)cc7)c6c5)cc4C)CC3)C2)ccc1N1CCC(=O)NC1=O [compound 138] |
| < 10 | Cc1cc(-c2cnc3[nH]cc(-c4ccc(C(=O)N(C)C)cc4)c3n2)cc(C)c1C1=CCN(CC2CN(c3cccc(N4CCC(=O)NC4=O)c3C)C2)CC1 [compound 027] |
| < 10 | Cc1cc(NCC2(CN3CC=C(c4c(C)cc(-c5cnc6[nH]cc(-c7ccc(C(=O)N(C)C)cc7)c6n5)cc4C)CC3)CC2)ccc1N1CCC(=O)NC1=O [compound 040] |
| < 10 | Cc1ccc(C(=O)N2CC(CN3CC=C(c4c(C)cc(-c5cnc6[nH]cc(-c7cnc8c(c7C)NCCO8)c6n5)cc4C)CC3)C2)cc1N1CCC(=O)NC1=O [compound 069] |
| < 10 | Cc1cc(N2CC(CN3CC=C(c4c(C)cc(-c5cnc6[nH]cc(-c7cccc(C#N)c7F)c6c5)cc4C)CC3)C2)ccc1N1CCC(=O)NC1=O [compound 101] |
| < 10 | Cc1cc(-c2cnc3[nH]cc(-c4ccc(C(=O)N(C)C)cc4)c3n2)cc(C)c1C1=CCN(CC2CN(c3cc(F)c(C4CCC(=O)NC4=O)c(F)c3)C2)CC1 (centres unmarked) [compound 002] |
